In brackets after ≈: the same amount, converted by molar mass.
Experiments:
cytosolic β-ketothiolase = conditions: background statement; cited from earlier work
certain fungal strains = conditions: background statement; cited from earlier work
[1] = tested on: certain bacterial strains; conditions: background statement; cited from earlier work
[2] = background statement; cited from earlier work
Candida albicans MY 1055 = test: Antifungal Assay (minimum inhibitory concentration, Candida albicans MY 1055); type: cell-based; conditions: Yeast Nitrogen Base/0.5% glucose; inoculum 3-5×10^-4 CFU/ml; 37° C., 18 hours; lowest concentration that inhibits visible growth
Procedure: Antifungal activity was determined against Candida albicans MY 1055, a yeast strain maintained by Merck and Co., Rahway, New Jersey. Minimum inhibitory concentrations were determined using a starting inoculum of 3-5×10^-4 CFU/ml. The medium was Yeast Nitrogen Base/0.5% glucose. Test compounds were dissolved in a minimum amount of 50% aqueous ethanol and diluted to final concentrations with yeast medium. Samples were incubated at 37° C. for 18 hours. The minimum inhibitory concentration (MIC), reported in μg/ml, is the lowest concentration of test compound that inhibits visible growth.

[3] = target: T1, Acetoacetyl-coenzyme A thiolase (Rattus norvegicus, UniProt Q5XI22); test: Acetoacetyl-Coenzyme A Thiolase Inhibition; type: biochemical, Sprague Dawley rats; conditions: Table II; text: IC50, concentration that inhibits 50% of thiolase activity; enzyme from livers of lovastatin-treated rats; pH 7.5, room temperature, 340 nm NADH oxidation; read-out: MIC
T1 construct: prepared from the livers of Sprague Dawley rats treated in the diet for one week with 0.075% lovastatin to induce the enzyme; from tissue; host or cells: liver of lovastatin-fed Sprague Dawley rats
Procedure: Acetoacetyl-coenzyme A thiolase was prepared from the livers of Sprague Dawley rats treated in the diet for one week with 0.075% lovastatin to induce the enzyme. Acetoacetyl-coenzyme A thiolase was purified through the DEAE-cellulose step essentially as described by Mehrabian et al., J. Biol. Chem., 261, 16249-16255 (1986), but modified slightly by carrying out the 30-50% ammonium sulfate precipitation of the enzyme and a dialysis before the DEAE-cellulose step. The 0.06M eluate described by Mehrabian et al. contained the acetoacetyl-coenzyme A thiolase. The isolate was concentrated by ammonium sulfate precipitation, dissolved in the buffer used for elution, and stored at -70° C.
Inhibition of acetoacetyl-coenzyme A thiolase was measured by coupling the formation of acetoacetyl-coenzyme A to its subsequent reduction by β-hydroxybutyryl-coenzyme A dehydrogenase to β-hydroxybutyryl-coenzyme A and monitoring the resultant oxidation of NADH with a spectrophotometer set at 340 nm. […] Reaction was measured at room temperature for a time period necessary to produce a measurable reaction rate. […]

T1 sequence (Q5XI22 whole entry): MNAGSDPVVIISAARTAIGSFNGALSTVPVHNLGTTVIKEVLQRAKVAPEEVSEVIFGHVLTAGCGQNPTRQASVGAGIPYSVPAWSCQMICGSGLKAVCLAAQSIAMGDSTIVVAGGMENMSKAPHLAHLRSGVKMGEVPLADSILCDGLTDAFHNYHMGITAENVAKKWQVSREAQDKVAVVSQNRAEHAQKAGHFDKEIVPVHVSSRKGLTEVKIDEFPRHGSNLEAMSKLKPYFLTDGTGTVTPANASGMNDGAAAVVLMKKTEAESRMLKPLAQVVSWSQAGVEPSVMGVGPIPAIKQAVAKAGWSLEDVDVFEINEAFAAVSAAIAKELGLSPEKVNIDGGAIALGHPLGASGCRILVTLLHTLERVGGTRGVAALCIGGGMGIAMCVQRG

| SMILES | inhibitor of cytosolic β-ketothiolase (cytosolic β-ketothiolase) | active against certain fungal strains (certain fungal strains) | active against certain bacterial strains [1] | instability of the compound in vivo [2] | MIC (Candida albicans MY 1055) [µg/mL] | IC50 [3] [nM] |
| --- | --- | --- | --- | --- | --- | --- |
| C#CC#CC#CC(O)C1OC(=O)OC1CCCCCCC(=O)O (stereo not shown) [triyne carbonate A, 5-(1-hydroxy-2,4,6-heptatriynyl)-2-oxo-1,3-dioxolane-4-heptanoic acid] | potent inhibitor | active | active | relative instability |  |  |
| COC(=O)CCCCCC[C@@H]1OC(=O)O[C@H]1C(O)C#CC#CC#C[Si](C)(C)C (single isomer, unassigned) [Ex. 6] |  |  |  |  | 0.6 (≈ 1.48 µM) |  |
| CC#CC#CC#C[C@@H](OC)[C@@H]1OC(=O)O[C@H]1CCCCCCC(=O)OC [Ex. 13, 5-(1(R)-Methoxy-2,4,6-octatriynyl)-2-oxo-4(S),5(S)-1,3-dioxolane-4-heptanoic acid, methyl ester] |  |  |  |  | 5 (≈ 13.9 µM) | 560 |

From US4920106A, “Acetylenic cyclic carbonates” (Merck & Co., Inc., priority 1989, dated 1990)
